Assays:
[1] = test system: Colon 26; assay: (§1) Inhibitory concentration of compound was tested against Colon 26 tumor growth cell line; assay type: functional, cell-based; settings: Mus musculus
[2] = test system: MC-38; assay: Inhibitory concentration of compound was tested against Colon 38 tumor growth cell line; assay type: functional, cell-based; settings: Mus musculus
[3] = test system: P388; assay: inhibitory concentration of compound was tested against P388:Methotrexate resistant cells tumor growth cell line; assay type: functional, cell-based; settings: Mus musculus
[4] = target: T1, Dihydrofolate reductase (Mus musculus, UniProt P00375); assay: Compound was tested for the inhibition of dihydrofolate reductase in P388 cells; assay type: cell-based
T1 sequence (P00375 whole entry): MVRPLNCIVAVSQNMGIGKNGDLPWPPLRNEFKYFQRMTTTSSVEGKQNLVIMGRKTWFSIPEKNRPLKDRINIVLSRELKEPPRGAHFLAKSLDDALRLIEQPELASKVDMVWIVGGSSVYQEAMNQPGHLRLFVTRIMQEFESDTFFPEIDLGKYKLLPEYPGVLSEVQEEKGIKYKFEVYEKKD

[5] = test system: P388 (Mus musculus); assay: Inhibitory concentration of compound was tested against P388 tumor growth cell line
[6] = test system: KB; assay: Inhibitory concentration of compound was tested against KB tumor growth cell line; assay type: functional, cell-based; settings: Homo sapiens
[7] = test system: Mus musculus; assay: Compound was evaluated for the activity against Colon 26 Mouse colorectal carcinoma in mice by tumor weight assay at 0.3 (mg/kg) dose; assay type: functional
[8] = test system: Mus musculus; assay: Compound was evaluated for the life span assay against P388 Leukemia in mice (Controls died in an average of 9.8 days) at 3.13 (mg/kg) dose; assay type: functional
[9] = test system: Mus musculus; assay: Compound was evaluated for the activity against Colon 26 Mouse colorectal carcinoma in mice by tumor weight assay at 0.6 (mg/kg) dose; assay type: functional
[10] = test system: Mus musculus; assay: Compound was evaluated for the life span assay against P388 Leukemia in mice (Controls died in an average of 9.8 days) at 0.05 (mg/kg) dose; assay type: functional
[11] = test system: Mus musculus; assay: Compound was evaluated for the activity against LC-6 Non-Small cell lung carcinoma in mice by tumor weight assay at 5 (mg/kg) dose experiment-1; assay type: functional
[12] = test system: Mus musculus; assay: Compound was evaluated for the life span assay against P388 Leukemia in mice (Controls died in an average of 9.8 days) at 1.56 (mg/kg) dose; assay type: functional
[13] = test system: Mus musculus; assay: Compound was evaluated for the activity against Colon 26 Mouse colorectal carcinoma in mice by tumor weight assay at 1.25 (mg/kg) dose; assay type: functional
[14] = test system: Mus musculus; assay: Compound was evaluated for the activity against LC-6 Non-Small cell lung carcinoma in mice by tumor weight assay at 2.5 (mg/kg) dose experiment-2; assay type: functional
[15] = test system: Mus musculus; assay: Compound was evaluated for the activity against LC-6 Non-Small cell lung carcinoma in mice by tumor weight assay at 5 (mg/kg) dose experiment-2; assay type: functional
[16] = test system: Colon 26; assay: Inhibitory concentration of compound was tested against Colon 26 Mouse Colorectal Carcinoma on 4 hour exposure; assay type: functional, cell-based; settings: Colon 26, 4 h
[17] = test system: Mus musculus; assay: Compound was evaluated for the life span assay against P388 Leukemia in mice (Controls died in an average of 9.8 days) at 0.39 (mg/kg) dose; assay type: functional
[18] = test system: Mus musculus; assay: Compound was evaluated for the activity against LC-6 Non-Small cell lung carcinoma in mice by tumor weight assay at 1.3 (mg/kg) dose experiment-2; assay type: functional
[19] = test system: Mus musculus; assay: Compound was evaluated for the life span assay against P388 Leukemia in mice (Controls died in an average of 9.8 days) at 0.78 (mg/kg) dose; assay type: functional
[20] = test system: Mus musculus; assay: Compound was evaluated for the life span assay against P388 Leukemia in mice (Controls died in an average of 9.8 days) at 0.2 (mg/kg) dose; assay type: functional
[21] = test system: Mus musculus; assay: Compound was evaluated for the life span assay against P388 Leukemia in mice (Controls died in an average of 9.8 days) at 0.1 (mg/kg) dose; assay type: functional
[22] = test system: Mus musculus; assay: Compound was evaluated for the activity against Colon 26 Mouse colorectal carcinoma in mice by tumor weight assay at 2.5 (mg/kg) dose; assay type: functional
[23] = test system: P388; assay: Inhibitory concentration of compound was tested against P388:Methotrexate resistant cells tumor growth cell line; assay type: functional, cell-based; settings: Mus musculus
[24] = test system: Mus musculus; assay: Compound was evaluated for the activity against LC-6 Non-Small cell lung carcinoma in mice by tumor weight assay at 2.5 (mg/kg) dose experiment-1; assay type: functional
[25] = test system: Mus musculus; assay: Compound was evaluated for the life span assay against P388 Leukemia in mice (Controls died in an average of 9.8 days) at 50 (mg/kg) dose; assay type: functional
[26] = test system: Mus musculus; assay: Compound was evaluated for the activity against Colon 26 Mouse colorectal carcinoma in mice by tumor weight assay at 5 (mg/kg) dose; assay type: functional
[27] = test system: P388; assay: Inhibitory concentration of compound was tested against P388 tumor growth cell line; assay type: functional, cell-based; settings: Mus musculus
[28] = test system: Mus musculus; assay: Compound was evaluated for the life span assay against P388 Leukemia in mice (Controls died in an average of 9.8 days) at 12.5 (mg/kg) dose; assay type: functional
[29] = test system: Mus musculus; assay: Compound was evaluated for the activity against Colon 26 Mouse colorectal carcinoma in mice by tumor weight assay at 10 (mg/kg) dose; assay type: functional
[30] = test system: Mus musculus; assay: Compound was evaluated for the activity against LC-6 Non-Small cell lung carcinoma in mice by tumor weight assay at 40 (mg/kg) dose experiment-2; assay type: functional
[31] = test system: Mus musculus; assay: Compound was evaluated for the activity against Colon 26 Mouse colorectal carcinoma in mice by tumor weight assay at 20 (mg/kg) dose; assay type: functional
[32] = test system: Mus musculus; assay: Compound was evaluated for the life span assay against P388 Leukemia in mice (Controls died in an average of 9.8 days) at […] (mg/kg) dose; assay type: functional
[33] = test system: Mus musculus; assay: Compound was evaluated for the activity against LC-6 Non-Small cell lung carcinoma in mice by tumor weight assay at 10 (mg/kg) dose experiment-2; assay type: functional
[34] = test system: Mus musculus; assay: Compound was evaluated for the activity against LC-6 Non-Small cell lung carcinoma in mice by tumor weight assay at 20 (mg/kg) dose experiment-2; assay type: functional
[35] = test system: Mus musculus; assay: Compound was evaluated for the activity against LC-6 Non-Small cell lung carcinoma in mice by tumor weight assay at 20 (mg/kg) dose experiment-1; assay type: functional
[36] = test system: Mus musculus; assay: Compound was evaluated for the activity against LC-6 Non-Small cell lung carcinoma in mice by tumor weight assay at 10 (mg/kg) dose in experiment-1; assay type: functional
[37] = test system: Mus musculus; assay: Compound was evaluated for the activity against LC-6 Non-Small cell lung carcinoma in mice by tumor weight assay at 10 (mg/kg) dose; assay type: functional
[38] = test system: Mus musculus; assay: Compound was evaluated for the activity against Colon 26 Mouse colorectal carcinoma in mice by tumor weight assay at 40 (mg/kg) dose
[39] = test system: Mus musculus; assay: Compound was evaluated for the activity against LC-6 Non-Small cell lung carcinoma in mice by tumor weight assay at 20 (mg/kg) dose; assay type: functional
[40] = organism: Mus musculus; assay: as §1; assay type: functional
[41] = test system: Mus musculus; assay: Compound was evaluated for the life span assay and the activity against P388 Leukemia in mice (Controls died in an average of 9.8 days) at 3.13 (mg/kg) dose; assay type: functional
[42] = test system: Mus musculus; assay: Compound was evaluated for the activity against LC-6 Non-Small cell lung carcinoma in mice by tumor weight assay at 40 (mg/kg) dose; assay type: functional
[43] = target: T1, Dihydrofolate reductase; assay: Binding affinity against dihydrofolate reductase
[44] = target: T2, Thymidylate synthase (Lactobacillus casei, UniProt P00469); assay: Binding affinity against TS
T2 sequence (P00469 whole entry): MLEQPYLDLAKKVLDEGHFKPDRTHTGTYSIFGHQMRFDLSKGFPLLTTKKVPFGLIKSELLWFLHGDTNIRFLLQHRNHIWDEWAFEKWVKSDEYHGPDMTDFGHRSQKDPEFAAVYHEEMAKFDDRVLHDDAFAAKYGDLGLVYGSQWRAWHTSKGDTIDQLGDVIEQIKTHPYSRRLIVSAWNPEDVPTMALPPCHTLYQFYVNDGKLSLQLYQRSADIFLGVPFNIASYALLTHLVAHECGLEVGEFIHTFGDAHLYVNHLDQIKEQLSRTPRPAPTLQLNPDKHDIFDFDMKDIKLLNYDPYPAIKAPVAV

`Nc1nc2c(c(=O)[nH]1)C(CCc1ccc(C(=O)NC(CCC(=O)O)C(=O)O)cc1)CC2` (stereo unspecified) was tested, and the IC50 [1] was greater than 1000 nM, the IC50 [2] was greater than 1000 nM and the IC50 [3] was greater than 1000 nM. It also gave an IC50 [4] of 2.1 nM, an IC50 [5] greater than 1000 nM and an IC50 [6] greater than 1000 nM.
In the case of `Nc1nc(N)c2c(n1)CCC2CCCc1ccc(C(=O)NC(CCC(=O)O)C(=O)O)cc1` (stereo unspecified), the T/C [7] is reported as 71%, the T/C [8] is reported as 138% and the IC50 [1] is reported as 3 nM. For the same compound, the IC50 [2] was 5.1 nM, the T/C [9] was 49% and the T/C [10] was 120%. It also gave a T/C [11] of 23%, a T/C [12] of 180% and a T/C [13] of 38%. For the same compound, the T/C [14] was 9%, the T/C [15] was 1% and the IC50 [16] was 1700 nM. It also gave a T/C [17] of 158%, a T/C [18] of 4% and a T/C [19] of 170%. It also gave a T/C [20] of 147%, a T/C [21] of 130% and a T/C [22] of 31%. The IC50 [23] was 19 nM, the T/C [24] was 6% and the IC50 [6] was 1.7 nM.
Work on `Nc1nc(N)c2c(n1)CCC2CCc1ccc(C(=O)NC(CCC(=O)O)C(=O)O)cc1` (stereo unspecified) yielded a T/C [25] of 148%, a T/C [26] of 62% and a T/C [8] of 135%. For the same compound, the IC50 [1] was 8 nM, the IC50 [2] was 10 nM and the IC50 [16] was 190 nM. The IC50 [27] was 7.1 nM, the T/C [28] was 147% and the T/C [19] was 129%. It also gave a T/C [22] of 95%, an IC50 [23] of 64 nM and an IC50 [4] of 72 nM. For the same compound, the T/C [29] was 41% and the IC50 [6] was 4.1 nM.
Compound `Nc1nc(O)c2c(n1)CCC2CCCc1ccc(C(=O)NC(CCC(=O)O)C(=O)O)cc1` (stereo unspecified) has an IC50 [1] greater than 1000 nM, an IC50 [23] greater than 1000 nM and an IC50 [5] greater than 1000 nM. The IC50 [6] was greater than 1000 nM.
For `CCC(Cc1cnc2nc(N)nc(N)c2n1)c1ccc(C(=O)N[C@@H](CCC(=O)O)C(=O)O)cc1` (stereo partly specified) [EDATREXATE], the T/C [30] was 1%, the T/C [31] was 64% and the T/C [32] was 165%. The T/C [8] was 162%, the IC50 [1] was 4.8 nM and the IC50 [2] was 11 nM. For the same compound, the T/C [33] was 22%, the T/C [12] was 155% and the IC50 [16] was greater than 40000 nM. It also gave a T/C [17] of 135%, an IC50 [27] of 4.3 nM and a T/C [28] of 157%. The T/C [34] was 1%, the T/C [19] was 136% and the T/C [35] was 38%. For the same compound, the T/C [20] was 114%, the IC50 [23] was 44 nM and the T/C [29] was 70%. For the same compound, the IC50 [6] was 3 nM and the T/C [36] was 63%.
Compound `CN(Cc1cnc2nc(N)nc(N)c2n1)c1ccc(C(=O)N[C@@H](CCC(=O)O)C(=O)O)cc1` [METHOTREXATE] has a T/C [31] of 65%, a T/C [32] of 168% and a T/C [37] of 100%. The T/C [38] was 31%, the T/C [39] was 53% and the IC50 [16] was greater than 40000 nM. It also gave an IC50 [27] of 23 nM, an IC50 [40] of 31 nM and a T/C [19] of 122%. For the same compound, the T/C [41] was 149%, the IC50 [23] was 223 nM and the T/C [42] was 35%. The T/C [29] was 71% and the IC50 [6] was 19 nM.
`Nc1nc2[nH]cc(CCc3ccc(C(=O)N[C@@H](CCC(=O)O)C(=O)O)cc3)c2c(=O)[nH]1` [PEMETREXED] gave a Ki [43] of 560 nM and a Ki [44] of 550 nM.
